Key:
[1] = test system: small DRG neurons; experiment: Test Example 2: combination effect with α1-adrenergic receptor blocker (high-K-induced rise in membrane potential, DiBAC4(3) fluorescence); assay type: cell-based, rat; conditions: control 72±3%
Experimental: This test was performed using male SD strain rats at 6 to 7 weeks of age after birth. The animals were reared in metal cages, and allowed to take food (CE-2; CLEA Japan) and water ad libitum. Rat spinal cord was dissected under halothane anesthesia. DRG tissue was removed from the spinal cord under a stereoscopic microscope, and recovered into an ice-cooled culture dish containing DMEM. The DRG tissue was digested using 0.25% trypsin and 0.38% collagenase, and DRG neurons were isolated. The DRG neurons were seeded to a cover glass coated with Poly-L-Lysine and laminin, and cultured. On the day after the start of cultivation, the DRG neurons were loaded with 5 μM DiBAC4(3) in the presence of 5% gaseous carbon dioxide at 37° C. for 1 hour or more. Thereafter, the neurons were transferred to an assay buffer solution (pH 7.3; 10 mM HEPES, 145 mM NaCl, 5 mM KCl, 2 mM CaCl2, 1 mM MgCl2, mM Glucose), and the fluorescence intensity of each DRG neuron was measured using the image analytical system AQUACOSMOS (Hamamatsu Photonics). When small DRG neurons were selected and stimulated with 60 mM high-concentration K solution (pH 7.3; 10 mM HEPES, 90 mM NaCl, 60 mM KCl, 2 mM CaCl2, 1 mM MgCl2, 10 mM Glucose), a rise in membrane potential was observed. When the 60 mM high-concentration K solution was replaced with the assay buffer solution, the transiently-elevated membrane potential fell rapidly. […]

[2] = test system: small DRG neurons; experiment: Test Example 1: action of the compound A on C-fiber activation (high-K-induced rise in membrane potential, DiBAC4(3) fluorescence); assay type: cell-based, rat; conditions: compound A 3 μM pretreated between 1st and 2nd 60 mM K stimulations; control 72±3%
Experimental: This test was performed using male SD strain rats at 6 to 7 weeks of age after birth. The animals were reared in metal cages, and allowed to take food (CE-2; CLEA Japan) and water ad libitum.
Rat spinal cord was dissected under halothane anesthesia. DRG tissue was removed from the spinal cord under a stereoscopic microscope, and recovered into an ice-cooled culture dish containing DMEM. The DRG tissue was digested using 0.25% trypsin and 0.38% collagenase, and DRG neurons were isolated. The DRG neurons were seeded to a cover glass coated with Poly-L-Lysine and laminin, and cultured.
On the day after the start of cultivation, the DRG neurons were loaded with 5 μM DiBAC4(3) in the presence of 5% gaseous carbon dioxide at 37° C. for 1 hour or more. Thereafter, the neurons were transferred to an assay buffer solution (pH 7.3; 10 mM HEPES, 145 mM NaCl, 5 mM KCl, 2 mM CaCl2, 1 mM MgCl2, mM Glucose), and the fluorescence intensity of each DRG neuron was measured using the image analytical system AQUACOSMOS (Hamamatsu Photonics).
When small DRG neurons were selected and stimulated with 60 mM high-concentration K solution (pH 7.3; 10 mM HEPES, 90 mM NaCl, 60 mM KCl, 2 mM CaCl2, 1 mM MgCl2, 10 mM Glucose), a rise in membrane potential was observed. When the 60 mM high-concentration K solution was replaced with the assay buffer solution, the transiently-elevated membrane potential fell rapidly. […]

SMILES: COc1ccccc1N1CCN(CC(O)COc2cccc3ccccc23)CC1 (stereo not drawn) [naftopidil]
- rise in membrane potential (ΔF/F), second rise relative to first rise as 100% ([1]; naftopidil 30 μM alone, treated between 1st and 2nd 60 mM K stimulations): 40±5%

SMILES: CCOc1ccccc1OCCN[C@H](C)Cc1ccc(OC)c(S(N)(=O)=O)c1 [tamsulosin]
- change in membrane potential ([1]; tamsulosin 0.1 μM alone, pretreatment, 60 mM K stimulation): nearly the same extent as with the control

SMILES: O=C1Nc2ccccc2[C@H](c2ccccc2)N1C1CCN(Cc2cccc(OC(F)(F)F)c2)CC1 [compound A, (+)-3-{1-[3-(trifluoromethoxy)benzyl]piperidin-4-yl}-4-phenyl-3,4-dihydro-2(1H)-quinazolinone]
- rise in membrane potential (ΔF/F), second rise relative to first rise as 100% [2]: 66±6%

Reference: patent US20110262566A1, “NOVEL USEFUL THERAPEUTIC AGENT FOR LOWER URINARY TRACT SYMPTOM” (DAINIPPON SUMITOMO PHARMA CO., LTD., priority 2008, published 2011)
